Assay results published in patent publication US20200215074A1, “Method of Treatment of Cancer” (CIPLA LIMITED, priority 2017, published 2020).

Key:
PAR-4 [1] = experiment: PAR-4 inducing activity, general statement of the inventors; assay type: cell-based, human and mouse; conditions: summary statement, no test details
PAR-4 [2] = conditions: literature (Burikhanov et al. 2014); cited from earlier work
PAR-4 [3] = experiment: In-vitro PAR-4 induction in mouse embryonic fibroblast cells (Western blot); assay type: cell-based; conditions: for PAR-4 secretion in the cell supernatant: 18-21 h incubation, Western blot
Procedure: (§1) Mouse embryonic fibroblast cells were harvested from exponential phase cultures. After a 24 h recovery period to allow the cells to resume exponential growth the cells were treated with M of Pyronaridine followed by further 18-21 h of incubation. […] The samples were also subjected to SDS/PAGE and Coomassie blue staining to determine albumin levels in serum from the Conditioned Medium (CM) as another loading control.
as §1, with “[…]” for “Pyronaridine”, “CM” for “Conditioned Medium (CM)”
as §1, with “fibroblast” for “fibroblast cells”, “with 25 µM” for “with M”, “of Meloquine” for “of Pyronaridine”, “the cell supernatant” for “the Conditioned Medium (CM)”
as §1, with “[…]” for “Pyronaridine”, “CM” for “Conditioned Medium (CM)”
as §1, with “fibroblast” for “fibroblast cells”, “with 25 μM” for “with M”, “of Mebendazole” for “of Pyronaridine”, “the cell supernatant” for “the Conditioned Medium (CM)”
as §1, with “fibroblast” for “fibroblast cells”, “with 25 µM” for “with M”, “of Tafenoquine” for “of Pyronaridine”, “the cell supernatant” for “the Conditioned Medium (CM)”
The experiment was conducted as per method set in an Example 1.

GRP-78 = experiment: In-vitro GRP-78 induction in human ovarian and renal cancer cell lines (Western blot); assay type: cell-based; conditions: 25 μM, 18-21 h
Procedure: (§2) Human ovarian cancer cell line SKOV-3 and renal cancer cell line 786-0 were harvested from exponential phase cultures. After a 24 h recovery period to allow the cells to resume exponential growth the cells were treated with 25 μM of Mefloquine followed by further 18-21 h of incubation. Induction of GRP-78 expression was checked in the cell lysate by subjecting the samples to Western blot analysis with antibodies specific for GRP-78.
as §2, with “Mebendazole” for “Mefloquine”
as §2, with “Tafenoquine” for “Mefloquine”

PAR-4 [4] = experiment: In-vivo PAR-4 induction in C57/BL6 mice (systemic serum PAR-4); design: species or system mouse; conditions: blood 24 hrs later
Procedure: Immunocompetent mice were orally administered with 10 mg/kg and 51.2 mg/kg body weight of Mefloquine or vehicle for 3 consecutive days followed by collection of blood 24 hrs later, serum separation and testing for systemic levels of PAR-4. Immunocompetent mice were orally administered with 1.5 mg/kg body weight of Narasin or vehicle for 3 consecutive days followed by collection of blood 24 hrs later, serum separation and testing for systemic levels of PAR-4.

PAR-4 [5] = conditions: at micromolar levels; cited from earlier work
metastatic lung tumors = conditions: injected in mice; literature (Zhao et al. 2011); cited from earlier work
[6] = 25 μM (25 M [sic] for Mefloquine and Tafenoquine)
[7] = SKOV-3 human ovarian cancer cell line

Molecule: COc1ccc(-c2ccc3cc(C(=O)O)ccc3c2)cc1C12CC3CC(CC(C3)C1)C2 [Adapalene]
- PAR-4 inducing activity (PAR-4 [1]): found to possess PAR-4 inducing activity

Molecule: CN(C)c1ccc2cc(-c3ccccc3F)c(N)nc2c1 [Arylquin-1]
- Secretion of PAR-4 from normal cells in mice (PAR-4 [2]): can increase secretion of PAR-4

Molecule: Cc1cccc(C)c1OCC(=O)N[C@@H](Cc1ccccc1)[C@@H](O)C[C@H](Cc1ccccc1)NC(=O)[C@H](C(C)C)N1CCCNC1=O [Lopinavir]
- PAR-4 secretion in the cell supernatant (PAR-4 [3]; test concentration not given): able to induce robust PAR-4 secretion
- PAR-4 inducing activity (PAR-4 [1]): found to possess PAR-4 inducing activity

Molecule: COC(=O)Nc1nc2ccc(C(=O)c3ccccc3)cc2[nH]1 [Mebendazole]
- PAR-4 secretion in the cell supernatant (PAR-4 [3]; [6]): able to induce robust PAR-4 secretion
- Induction of PAR-4 in cell lysate (PAR-4 [3]): Induction of PAR-4
- GRP-78 expression in cell lysate (GRP-78; 786-0 renal cancer cell line): induced GRP-78 expression
- GRP-78 expression in cell lysate (GRP-78; [7]): induced GRP-78 expression
- PAR-4 inducing activity (PAR-4 [1]): found to possess PAR-4 inducing activity

Molecule: OC(c1cc(C(F)(F)F)nc2c(C(F)(F)F)cccc12)C1CCCCN1 (stereo not shown) [Mefloquine]
- PAR-4 secretion in the cell supernatant (PAR-4 [3]; [6]): able to induce robust PAR-4 secretion
- Elevation of PAR-4 in mouse serum relative to vehicle (PAR-4 [4]; oral 51.2 mg/kg for 3 consecutive days): induced robust elevation of PAR-4
- GRP-78 expression in cell lysate (GRP-78; 786-0 renal cancer cell line): induced GRP-78 expression
- GRP-78 expression in cell lysate (GRP-78; [7]): induced GRP-78 expression
- PAR-4 inducing activity (PAR-4 [1]): found to possess PAR-4 inducing activity

Molecule: CCn1cc(C(=O)O)c(=O)c2ccc(C)nc21 [Nalidixic Acid]
- PAR-4 secretion in the cell supernatant (PAR-4 [3]; test concentration not given): able to induce robust PAR-4 secretion
- PAR-4 inducing activity (PAR-4 [1]): found to possess PAR-4 inducing activity

Molecule: CC[C@@H](C(=O)O)[C@@H]1O[C@@H]([C@@H](C)[C@H](O)[C@H](C)C(=O)[C@H](CC)[C@H]2O[C@]3(C=C[C@@H](O)[C@]4(CC[C@@](C)([C@H]5CC[C@](O)(CC)[C@H](C)O5)O4)O3)[C@H](C)C[C@@H]2C)[C@@H](C)C[C@@H]1C [Narasin]
- PAR-4 secretion in the cell supernatant (PAR-4 [3]; test concentration not given): able to induce robust PAR-4 secretion
- Elevation of PAR-4 in mouse serum relative to vehicle (PAR-4 [4]; oral 1.5 mg/kg for 3 consecutive days): induced robust elevation of PAR-4
- PAR-4 inducing activity (PAR-4 [1]): found to possess PAR-4 inducing activity

Molecule: COc1ccc(C2=N[C@@H](c3ccc(Cl)cc3)[C@@H](c3ccc(Cl)cc3)N2C(=O)N2CCNC(=O)C2)c(OC(C)C)c1 [Nutlin-3a]
- Secretion of PAR-4 from normal cells in mice (PAR-4 [2]): can increase secretion of PAR-4
- PAR-4 secretion in MEF cells (PAR-4 [5]): stimulated PAR-4 secretion

Molecule: O=C(Nc1cc(Cl)cc2c1[nH]c1cnccc12)c1cccnc1 [PS-1145]
- Secretion of PAR-4 from normal cells in mice (PAR-4 [2]): can increase secretion of PAR-4

Molecule: CCn1cc(C(=O)O)c(=O)c2cnc(N3CCNCC3)nc21 [Pipemidic Acid]
- PAR-4 secretion in the cell supernatant (PAR-4 [3]; test concentration not given): able to induce robust PAR-4 secretion
- PAR-4 inducing activity (PAR-4 [1]): found to possess PAR-4 inducing activity

Molecule: COc1ccc2nc3cc(Cl)ccc3c(Nc3cc(CN4CCCC4)c(O)c(CN4CCCC4)c3)c2n1 [Pyronaridine]
- Dose dependence of PAR-4 induction (PAR-4 [3]): in a dose dependent manner
- PAR-4 secretion in the cell supernatant (PAR-4 [3]; test concentration not given): able to induce robust PAR-4 secretion
- PAR-4 inducing activity (PAR-4 [1]): found to possess PAR-4 inducing activity

Molecule: C[C@@H]1CN(c2c(F)c(N)c3c(=O)c(C(=O)O)cn(C4CC4)c3c2F)C[C@H](C)N1 [Sparfloxacin]
- PAR-4 secretion in the cell supernatant (PAR-4 [3]; test concentration not given): able to induce robust PAR-4 secretion
- PAR-4 inducing activity (PAR-4 [1]): found to possess PAR-4 inducing activity

Molecule: COc1cc(C)c2c(Oc3cccc(C(F)(F)F)c3)c(OC)cc(NC(C)CCCN)c2n1 (stereo not shown) [Tafenoquine]
- Dose dependence of PAR-4 induction (PAR-4 [3]): Dose dependent induction of PAR-4
- PAR-4 secretion in the cell supernatant (PAR-4 [3]; [6]): able to induce robust PAR-4 secretion
- Induction of PAR-4 in cell lysate (PAR-4 [3]): Induction of PAR-4
- GRP-78 expression in cell lysate (GRP-78; 786-0 renal cancer cell line): induced GRP-78 expression
- GRP-78 expression in cell lysate (GRP-78; [7]): induced GRP-78 expression
- PAR-4 inducing activity (PAR-4 [1]): found to possess PAR-4 inducing activity

Molecule: CC(C)N1CCN(c2ccc(OCC3COC(Cn4cncn4)(c4ccc(Cl)cc4Cl)O3)cc2)CC1 (stereo not shown) [Terconazole]
- Dose dependence of PAR-4 induction (PAR-4 [3]): in a dose dependent manner
- PAR-4 secretion in the cell supernatant (PAR-4 [3]; test concentration not given): able to induce robust PAR-4 secretion
- Induction of PAR-4 in cell lysate (PAR-4 [3]): Induction of PAR-4
- PAR-4 inducing activity (PAR-4 [1]): found to possess PAR-4 inducing activity

B1: recombinant PAR-4: recombinant PAR-4 protein injected in mice to elevate extracellular PAR-4 (protein, UniProt Q96IZ0 1-340, looked up)
PRKC apoptosis WT1 regulator …: MATGGYRTSSGLGGSTTDFLEEWKAKREKMRAKQNPPGPAPPGGGSSDAAGKPPAGALGTPAAAAANELNNNLPGGAPAAPAVPGPGGVNCAVGSAMLTRAAPGPRRSEDEPPAASASAAPPPQRDEEEPDGVPEKGKSSGPSARKGKGQIEKRKLREKRRSTGVVNIPAAECLDEYEDDEAGQKERKREDAITQQNTIQNEAVNLLDPGSSYLLQEPPRTVSGRYKSTTSVSEEDVSSRYSRTDRSGFPRYNRDANVSGTLVSSSTLEKKIEDLEKEVVRERQENLRLVRLMQDKEEMIGKLKEEIDLLNRDLDDIEDENEQLKQENKTLLKVVGQLTR
- Effect on metastatic lung tumors (metastatic lung tumors): cause inhibition of metastatic lung tumors
